Data published in patent publication US7807663B2, “Therapeutic agents for diabetes” (Ajinomoto Co., Inc., priority 2003, dated 2010).
Converted amounts (≈) assume the structure as drawn.

Tested on: adipose cells of rats
Assay: Evaluation of the sugar transportation activity (2-[14C(U)]-deoxy-D-glucose incorporation)
Type: cell-based, Wistar rats
Conditions: rat adipose cells
Experimental: 1. Preparation of Adipose Cells of Rats:
After the decapitation and venesection of 6 male Wistar rats (body weight: 150 to 200 g), an incision was made in the abdomen of each rat to extract 6 g in total of epididymal adipose tissues. The tissues were finely cut into 2 mm×2 mm pieces in 6 ml of KRH (Krebs-Ringer Hepes, composition: 130 mM of sodium chloride, 4.7 mM of potassium chloride, 1.2 mM of potassium dihydrogenphosphate, 1.2 mM of magnesium sulfate, 1 mM of calcium chloride and 25 mM of Hepes, pH=7.6) containing 5% of BSA (bovine serum albumin). 24 mg of collagenase (type I) was added thereto and the digestion treatment was conducted for about 40 minutes to obtain about 6 ml of isolated adipose cells. The collagenase was removed by the buffer exchange. 2% BSA/KRH solution was added to the residue for the re-suspension to obtain 45 ml of an adipose cell suspension.
2. Evaluation of the Sugar Transportation Activity:
The sugar transportation activity of the compound (I) of the present invention was evaluated with reference to a method described in a literature [Annual Review of Biochemistry, Vol. 55, p. 1059 (1986)]. In the test, 200 μL of the adipose cell suspension was poured in each polystyrene test tube, 100 μL of the solution of the test substance (by dilution of 10 mg/mL dimethyl sulfoxide solution with KRH) was added thereto, and the obtained mixture was shaken and then cultured at 37° C. for 30 minutes. The sugar transportation activity was evaluated by measuring the quantity of 2-[^14C(U)]-deoxy-D-glucose incorporated per a unit time. Namely, 2-[^14C(U)]-deoxy-D-glucose was added to the adipose cell suspension after the pre-culture (the final concentration: 0.5 μCi/sample). 5 minutes after, cytochalasin B (final concentration: 10 μM) was added to the mixture to terminate the sugar transportation. After forming a dinonyl phthalate layer, the obtained mixture was centrifuged to separate the adipose cells from the buffer. The quantity of 2-[^14C(U)]-deoxy-D-glucose contained in the adipose cell layer was determined with a liquid scintillation counter to determine the quantity of the incorporated sugar. In this evaluation system, when insulin (100 nM) having the effect of reinforcing the sugar transportation was used, the effect was about 7 times as high as that obtained in the insulin-free control group.
The results of the evaluation of the sugar transportation activity obtained by using 100 μg/mL of the compound (I) of the present invention are shown in Table 3. The sugar transportation activity in Table 3 was evaluated on the basis of the reinforcing effect of insulin (100 nM). The sugar transportation activity A in Table 3 was determined in terms of the concentration (EC50: μg/mL) of a test compound, having a reinforcing effect corresponding to 50% on the basis of the reinforcing effect of insulin (100 nM) having a reinforcing effect of 100%.
The symbols in Table 3 are as follows: • No: Compound No. in Tables 1 and 2, and • A: sugar transportation activity.

[1] = concentration with reinforcing effect of 50% of that of insulin (100 nM) = 100%, 30 min pre-culture at 37° C., 5 min uptake

| A: sugar transportation activity (EC50) [1] | Compound | other results |
| --- | --- | --- |
| 2 µg/mL | COCC(=O)N1[C@@H]2CCCC[C@H]2NC2=C(C(=O)NC2)[C@H]1c1ccccc1OC(F)(F)F [Compound 69] |  |
| 0.82 µg/mL | CCC(=O)N1[C@@H]2CCCC[C@H]2NC2=C(C(=O)NC2)[C@H]1c1ccc(F)cc1OC [Compound 70] |  |
| 7.8 µg/mL | CCOCC(=O)N1[C@@H]2CCCC[C@H]2NC2=C(C(=O)NC2)[C@H]1c1ccc(F)cc1OC [Compound 71] |  |
| 8 µg/mL | COc1cc(F)ccc1[C@@H]1C2=C(CNC2=O)N[C@@H]2CCCC[C@H]2N1C(C)=O [Compound 72] |  |
| 6 µg/mL | COc1cc(Cl)ccc1[C@@H]1C2=C(CNC2=O)N[C@@H]2CCCC[C@H]2N1C(C)=O [Compound 73] |  |
| 10 µg/mL | COc1ccc(F)cc1[C@@H]1C2=C(CNC2=O)N[C@@H]2CCCC[C@H]2N1C(C)=O [Compound 76] |  |
| 12 µg/mL | COc1cccc([C@@H]2C3=C(CNC3=O)N[C@@H]3CCCC[C@H]3N2C(C)=O)c1OC [Compound 77] |  |
| 6 µg/mL | Cc1ccccc1[C@@H]1C2=C(CNC2=O)N[C@@H]2CCCC[C@H]2N1C(=O)C(F)(F)F [Compound 82] |  |
| 2 µg/mL | CCC(=O)N1[C@@H]2CCCC[C@H]2NC2=C(C(=O)NC2)[C@H]1c1ccccc1C [Compound 83] |  |
| 4 µg/mL | CCOCC(=O)N1[C@@H]2CCCC[C@H]2NC2=C(C(=O)NC2)[C@H]1c1ccccc1C [Compound 84] |  |
| 8 µg/mL | CC(=O)OCC(=O)N1[C@@H]2CCCC[C@H]2NC2=C(C(=O)NC2)[C@H]1c1ccccc1C [Compound 85] |  |
| 2.5 µg/mL | Cc1ccccc1[C@@H]1C2=C(CNC2=O)N[C@@H]2CCCC[C@H]2N1C(=O)CO [Compound 86] |  |
| 7 µg/mL | CCOC(=O)N1[C@@H]2CCCC[C@H]2NC2=C(C(=O)NC2)[C@H]1c1ccccc1C [Compound 89] |  |
| 2.2 µg/mL | CCC(=O)N1[C@@H]2CCCC[C@H]2NC2=C(C(=O)NC2)[C@H]1c1ccccc1CC [Compound 94] |  |
| 6 µg/mL | CCc1ccccc1[C@@H]1C2=C(CNC2=O)N[C@@H]2CCCC[C@H]2N1C(=O)COC [Compound 97] |  |
| 5 µg/mL | CCOCC(=O)N1[C@@H]2CCCC[C@H]2NC2=C(C(=O)NC2)[C@H]1c1cccc(Cl)c1C [Compound 108] |  |
| 0.5 µg/mL | O=C1NCC2=C1[C@@H](c1ccccc1Br)N(C(=O)CC(F)(F)F)[C@@H]1CCCC[C@H]1N2 [Compound 109] |  |
| 1.5 µg/mL | COC(=O)CC(=O)N1[C@@H]2CCCC[C@H]2NC2=C(C(=O)NC2)[C@H]1c1ccccc1Br [Compound 111] |  |
| 6 µg/mL | COCC(=O)N1[C@@H]2CCCC[C@H]2NC2=C(C(=O)NC2)[C@H]1c1ccccc1Br [Compound 113] |  |
| 6 µg/mL | CC(=O)N1[C@@H]2CCCC[C@H]2NC2=C(C(=O)NC2)[C@H]1c1ccccc1Br [Compound 114] |  |
| 3 µg/mL | CCC(=O)N1[C@@H]2CCCC[C@H]2NC2=C(C(=O)NC2)[C@H]1c1ccccc1Cl [Compound 116] |  |
| 4 µg/mL | CCCC(=O)N1[C@@H]2CCCC[C@H]2NC2=C(C(=O)NC2)[C@H]1c1ccccc1Cl [Compound 117] |  |
| 0.5 µg/mL | O=C1NCC2=C1[C@@H](c1ccccc1Cl)N(C(=O)CC(F)(F)F)[C@@H]1CCCC[C@H]1N2 [Compound 118] |  |
| 2 µg/mL | COC(=O)CC(=O)N1[C@@H]2CCCC[C@H]2NC2=C(C(=O)NC2)[C@H]1c1ccccc1Cl [Compound 121] |  |
| 2 µg/mL | CCC(=O)N1[C@@H]2CCCC[C@H]2NC2=C(C(=O)NC2)[C@H]1c1ccccc1F [Compound 124] |  |
| 2 µg/mL | CCOCC(=O)N1[C@@H]2CCCC[C@H]2NC2=C(C(=O)NC2)[C@H]1c1ccccc1F [Compound 126] |  |
| 12 µg/mL | CC(=O)N1[C@@H]2CCCC[C@H]2NC2=C(C(=O)NC2)[C@H]1c1ccccc1N [Compound 136] |  |
| 17 µg/mL | CC(=O)N1[C@@H]2CCCC[C@H]2NC2=C(C(=O)NC2)[C@H]1c1ccc(Br)cc1 [Compound 139] |  |
| 6 µg/mL | CCOCC(=O)N1[C@@H]2CCCC[C@H]2NC2=C(C(=O)NC2)[C@H]1c1ccc(Cl)cc1 [Compound 141] |  |

The remaining lines, values behind:

| Compound | A: sugar transportation activity (EC50) [1] | other results |
| --- | --- | --- |
| COc1ccc([C@@H]2C3=C(CNC3=O)N[C@@H]3CCCC[C@H]3N2C(C)=O)c(OC)c1 [Compound 78] | 10 µg/mL |  |
| COCC(=O)N1[C@@H]2CCCC[C@H]2NC2=C(C(=O)NC2)[C@H]1c1ccccc1C [Compound 87] | 6 µg/mL |  |
| COC(=O)N1[C@@H]2CCCC[C@H]2NC2=C(C(=O)NC2)[C@H]1c1ccccc1C [Compound 90] | 2 µg/mL |  |
| Cc1ccccc1[C@@H]1C2=C(CNC2=O)N(C)[C@@H]2CCCC[C@H]2N1C(=O)CO [Compound 92] | 1.5 µg/mL |  |
| CCCC(=O)N1[C@@H]2CCCC[C@H]2NC2=C(C(=O)NC2)[C@H]1c1ccccc1CC [Compound 93] | 5 µg/mL |  |
| CCc1ccccc1[C@@H]1C2=C(CNC2=O)N[C@@H]2CCCC[C@H]2N1C(=O)CC(=O)OC [Compound 95] | 2 µg/mL |  |
| CCc1ccccc1[C@@H]1C2=C(CNC2=O)N[C@@H]2CCCC[C@H]2N1C(=O)OC [Compound 99] | 4 µg/mL |  |
| CCc1ccccc1[C@@H]1C2=C(CNC2=O)N(CC)[C@@H]2CCCC[C@H]2N1C(C)=O [Compound 102] | 5 µg/mL |  |
| O=C1NCC2=C1[C@@H](c1ccccc1C1CC1)N(C(=O)CO)[C@@H]1CCCC[C@H]1N2 [Compound 104] | 0.8 µg/mL |  |
| CC(=O)N1[C@@H]2CCCC[C@H]2NC2=C(C(=O)NC2)[C@H]1c1cccc(F)c1C [Compound 107] | 6 µg/mL |  |
| CCC(=O)N1[C@@H]2CCCC[C@H]2NC2=C(C(=O)NC2)[C@H]1c1ccccc1Br [Compound 110] | 1.5 µg/mL |  |
| CCOCC(=O)N1[C@@H]2CCCC[C@H]2NC2=C(C(=O)NC2)[C@H]1c1ccccc1Br [Compound 112] | 8.6 µg/mL |  |
| COCC(=O)N1[C@@H]2CCCC[C@H]2NC2=C(C(=O)NC2)[C@H]1c1ccccc1Cl [Compound 119] | 5 µg/mL |  |
| CCOCC(=O)N1[C@@H]2CCCC[C@H]2NC2=C(C(=O)NC2)[C@H]1c1ccccc1Cl [Compound 120] | 10.7 µg/mL |  |
| COC(=O)N1[C@@H]2CCCC[C@H]2NC2=C(C(=O)NC2)[C@H]1c1ccccc1Cl [Compound 122] | 2.4 µg/mL |  |
| O=C1NCC2=C1[C@@H](c1ccccc1F)N(C(=O)C1CC1)[C@@H]1CCCC[C@H]1N2 [Compound 125] | 2 µg/mL |  |
| COC(=O)N1[C@@H]2CCCC[C@H]2NC2=C(C(=O)NC2)[C@H]1c1ccccc1F [Compound 127] | 2 µg/mL |  |
| COC(=O)N1[C@@H]2CCCC[C@H]2NC2=C(C(=O)NC2)[C@H]1c1ccccc1 [Compound 133] | 2 µg/mL |  |
| COc1ccc([C@@H]2C3=C(CNC3=O)N[C@@H]3CCCC[C@H]3N2C(C)=O)cc1 [Compound 138] | 4.4 µg/mL |  |
| CC(=O)N1[C@@H]2CCCC[C@H]2NC2=C(C(=O)NC2)[C@H]1c1ccc(Br)s1 [Compound 144] |  | EC50 [1]: 19 µg/mL (≈ 46.3 µM) |
| insulin [reference compound] |  | effect of reinforcing the sugar transportation relative to insulin-free control group (insulin 100 nM): about 7 times |
